Laboratory results reported in patent US20240201204A1, “Biomarker and Druggable Target of Neurodegeneration” (University Hospitals Cleveland Medical Center, priority 2020, published 2024).

What was measured:
[1] = patients with pediatric and adolescent congenital muscular dystrophy; cited from earlier work
clinically-diagnosed TBI = experiment: Pharmacoepidemiologic cohort analysis (MarketScan Medicare Supplemental database), incidence of TBI; type: in vivo, human; details: vs. PS-matched aspirin cohort, Cox regression model, 6 years of follow-up
Excerpt: (§1) Because ac-tau has been generally reported in the brains of subjects with AD, we evaluated the relationship between salsalate or diflunisal use and incidence of clinically-diagnosed TBI or AD by analyzing 7.23 million U.S. commercially-insured individuals (MarketScan Medicare Supplemental database). We conducted two cohort analyses to evaluate the predicted association, based on individual level of longitudinal patient data and pharmacoepidemiologic methods, as previously established (Cheng et al., 2018). Thus, our two cohorts included: (1) salsalate vs. a matched aspirin population and (2) diflunisal vs. a matched aspirin population (Table 2). For each comparison, we estimated the un-stratified Kaplan-Meier curves and conducted propensity score (PS) stratified (n strata=10) log-rank tests and a Cox regression model after adjusting age, race, sex, and disease comorbidities (including diabetes, hypertension, and coronary artery disease) using a propensity score-matching method (Methods).
Study cohorts. The IBM® MarketScan® Medicare Supplemental Database is one of the first in the U.S. to profile the healthcare experience of retirees with Medicare supplemental insurance paid by employers. The MarketScan Medicare Supplemental Database provides detailed cost, use and outcomes data for healthcare services performed in both inpatient and outpatient settings. […]

tau = experiment: Tau phosphorylation at S262 after TBI (western blot); type: in vivo, mouse; details: salsalate treatment after TBI, vs. Sham-Injury
Experimental: (§2) Drug preparation and administration: CGP3466B (Sigma-Aldrich, SML1941) was dissolved in DMSO and then diluted in sterile saline. The final working stock was 0.0014 mg/ml for administering the 0.014 mg/kg dose. Intraperitoneal administration of CGP3466B was initiated 15 min or 24 h after injury, and tissues were harvested 6 h (for SNO-GAPDH, SNO-SIRT1 measurement) or 2 weeks (for ac-tau measurement) later, respectively. Salsalate (AdipoGen, AG-CR1-3574) was dissolved in DMSO and then diluted in sterile PBS. The final working stocks were as follows: 2.5 mg/ml (25 mg/kg dose), 1 mg/ml (10 mg/kg dose), 0.5 mg/ml (5 mg/kg dose). Daily intraperitoneal administration of salsalate was initiated 24 hr after injury and continued throughout behavioral testing. P7C3-A20 and FK866 (Sigma-Aldrich, F8557) were first dissolved in 1 vol of DMSO, followed by addition of 4 vol of Kolliphor and vigorously vortexing. The solution was then diluted with 30 vol of filtered 5% dextrose (pH 7.0). […]
Western blotting: Western blotting was performed as described previously (Min et al., 2010), with the 9AB antibody against acetylated-tau generated in the Gan laboratory. […] Lysates were centrifuged at 170,000 g at 4° C. for 15 min and at 18,000 g at 4° C. for 10 min, after which protein concentrations of supernatants were measured by bicinchoninic acid assay (Thermo Scientific, A53225). […]

CCL2 = CCL2 expression in cerebral cortex after TBI (qPCR); type: in vivo, mouse; details: 25 mg/kg salsalate
Experimental: as §2, with “7.0). EX527 (Selleckchem, S1541) was dissolved in 1% DMSO+30% polyethylene glycol+1% Tween 80. Daily intraperitoneal administration of P7C3-A20 was initiated 24 hr after poly-traumatic brain injury. EX527 (10 mg/kg) was administer once a day and FK866 was treated twice per day, with the first injection given at the same time as P7C3-A20 (20 mg/kg) and the second injection given 6 h later (LoCoco et al., 2017 eLife).” for “7.0).”

Alzheimer's disease = experiment: Pharmacoepidemiologic cohort analysis (MarketScan Medicare Supplemental database), incidence of AD; type: in vivo, human
Excerpt: as §1
Study cohorts. The IBM® MarketScan® Medicare Supplemental Database is one of the first in the U.S. to profile the healthcare experience of retirees with Medicare supplemental insurance paid by employers. The MarketScan Medicare Supplemental Database provides detailed cost, use and outcomes data for healthcare services performed in both inpatient and outpatient settings. For most of the population, the medical claims are linked to outpatient prescription drug claims and person-level enrollment data through the use of unique patient or enrollee identifiers. […] This feature makes the database a robust tool for pharmacoeconomic and outcomes research and helps provide insight into the drug use and spending patterns of older Americans. In this study, the pharmacoepidemiology study utilized the MarketScan Medicare Claims database from 2012 to 2017. The dataset included individual-level diagnosis codes, procedure codes and pharmacy claim data for 7.23 million patients. Pharmacy prescriptions of salsalate, diflunisal, and aspirin were identified by using RxNorm and National Drug Code (NDC).
Outcome measurement. For a subject, a drug episode is defined as from drug initiation to drug discontinuation. Specifically, drug initiation is defined as the first day of drug supply (i.e. 1st prescription date). Drug discontinuation is defined as the last day of drug supply (i.e. last prescription date+days of supply) and without drug supply for the next 60 days. In another word, gaps of less than 60-day of drug supply were allowed within a drug episode. The drug cohort included the first drug episode for each subject. For the final cohorts, demographic variables including age, race, sex and geographical location were collected. […]

For C#CCN(C)CC1=Cc2ccccc2Oc2ccccc21.O=C(O)/C=C\C(=O)O [CGP3466B], the “safety in Phase 1 clinical trial” value [1] is given as “shown safety”.
For O=C(Oc1ccccc1C(=O)O)c1ccccc1O [salsalate], the “hazard ratio [HR], clinically-diagnosed TBI” value (clinically-diagnosed TBI) was 0.70, the “phosphorylation of tau at S262 in hippocampus” value (tau) was “remains significantly decreased in hippocampus” and the “TBI-induced increase of CCL2 in cerebral cortex” value (CCL2) was “this increase is not attenuated”. The “incidence of AD, subgroup analysis” value (Alzheimer's disease; excluding patients with type 2 diabetes, hypertension, or coronary artery disease, vs. aspirin) was “associated with decreased incidence of AD” and the “hazard ratio [HR], AD” value (Alzheimer's disease; vs. PS-matched aspirin cohort, Cox regression model, 6 years of follow-up) was 0.57.
